Series [1] in a line: Skin permeation in Franz diffusion cells. Type of series: in vitro ADME, pig. The settings on record: 24 h, 10 mg as FA applied. As for the experimental part: In the experiment, abdominal porcine skin coming from the local slaughterhouse was used. Pig skin was chosen because of its similar permeability to human skin [34, 35]. The fresh abdominal porcine skin was washed several times in PBS buffer pH 7.4. The skin of 0.5 mm in thickness was dermatomed and divided into 2 cm × 2 cm pieces. The skin samples were wrapped in aluminum foil and stored at −20 °C until use, not longer than 3 months. According to Badran et al., this storage time at this temperature is safe to keep skin barrier properties. Immediately before the experiment, the skin samples were slowly thawed at room temperature for 30 min and then were hydrated by PBS pH 7.4 [37, 38, 39, 40]. Such prepared skin was mounted on donor chamber. Only the undamaged skin pieces with an even thickness were chosen for experiments. The integrity of the skin was checked by impedance measurement using an LCRmeter4080 (Conrad Electronic, Hirschau, Germany), operated in parallel mode at an alternating frequency of 120 Hz (error at kΩ values < 0.5%). The tips of measuring probes were immersed in the donor and acceptor chamber containing PBS (pH 7.4), as described previously. Only skin samples of impedance > 3 kΩ were applied as such impedance is similar to the electrical resistance of human skin [42].
The concentration of FA and its derivatives in the acceptor fluid and in the fluid obtained by skin extraction after permeation experiment was assessed using liquid chromatography system (Knauer, Berlin, Germany) consisting of a model 2600 UV detector, Smartline model 1050 pump and Smartline model 3950 autosampler. HPLC was controlled by ClarityChrom 2009 software. The detector was operated at 280 nm. The separations were performed on 125 mm × 4 mm ID chromatographic column filled with Hyperisil ODS (C18), particle size 5 µm, in isocratic mode. The mobile phase consisted of acetonitrile, 1% acetic acid, and MeOH (47/47/6 v/v/v) and was pumped at flow rate of 1 mL min^−1. The column temperature was set at 25 °C, and the injection volume was 20 µL.
(§1) The permeation experiments were performed using Franz diffusion cells (Phoenix DB-6, ABL&E-JASCO, Wien, Austria). The diffusion was 1 cm^2. The volume of the acceptor chamber was 8 mL. This chamber was filled with PBS solution (pH 7.4). During experiment, a constant temperature of 37.0 ± 0.5 °C was maintained in each diffusion unit. The acceptor chamber content was stirred with a magnetic stirring bar at the same speed for all cells. The prepared pig skin was mounted on each donor chamber. As previously mentioned, only undamaged skin pieces with an even thickness were chosen for experiments. Thereafter, the hydrogel or emulsion vehicle/preparation in 1 g portion was put on the skin in donor cells. For comparison, 1 mL ethanolic solution containing either FA or its derivatives was applied to another donor chamber. The amount of the FA and its derivatives applied on the skin expressed as the mass of ferulic acid was 0.01 g and was the same for each carrier. The penetration experiments were carried out for 24 h. The samples were collected after 1 h, 2 h, 3 h, 4 h, 5 h, 6 h, 8 h, and 24 h. Aliquots of the acceptor fluid (0.5 mL) were withdrawn and to each acceptor chamber the same volume of fresh PBS solution was added. The FA and its derivatives’ concentrations in the acceptor fluid were measured by HPLC method (Section 2.6.2). The cumulative mass (µg·cm^−2) and penetration rate (µg·cm^−2·h^−1) were calculated. The acceptor fluid collected after 24 h of permeation was also measured for antioxidant activity and total polyphenol content (as described in Section 2.5.1 and Section 2.5.2).

Series [2] concerns Murine fibroblasts (L929). Description: Cytotoxicity, PrestoBlue resazurin-based cell viability assay. The settings on record: 2.0 mM, 24 h, PrestoBlue, normalized to control.
Experimental: The cell biocompatibility was evaluated using a PrestoBlue HS Cell Viability Reagent (Thermo Fisher Scientific, MA USA) based on the reduction of the resazurin to highly fluorescent resorufin, of which the amount is directly correlated to the number of living cells. […] The cells without tested compounds were used as control. The interaction of tested compounds without cells and Prestoblue Reagent (blank wells) was excluded. After 24 h of treatment, optical microscopy imaging of L929 cells was performed using Smart Fluorescent Cell Analyzer Microscope JuLi (Seoul, Korea). Next, the PrestoBlue reagent (10 μL) was added to each well and incubated for 30 min. The fluorescence was measured using a spectrophotometric microplate reader (Infinite 200 Pro, Tecan, Männedorf, Switzerland) at ex/em: 560/594 nm. The readings were acquired from at least three independent experiments (each conducted in triplicate) and normalized to the control (100% viability).
The nature of series [3]: DPPH radical scavenging assay of the compounds. The protocol:
(§2) To determine the antioxidant capacity of ferulic acid and its derivatives the DPPH method was used. The analyses were performed using the Hitachi UV-Vis Spectrophotometer U-5100 at the wavelength λ = 517 nm. Trolox (6-hydroxy-2,5,7,8-tetramethylchroman-2-carboxylic acid) was used as a reference substance. The antioxidant activity was expressed as %RSA and mmol Trolox dm^−3. […]. Blank samples without antioxidant were prepared in the same way. The tubes were wrapped in aluminum foil and were sealed with a stopper and then incubated for 10 min at room temperature. After this time, spectrophotometric measurements were carried out in triplicate. For determination of antioxidant activity of the acceptor fluid after 24 h of permeation and solutions obtained by extraction of the skin obtained after penetration study, 0.15 mL samples of each solutions were separately added to 2.85 mL of DPPH solution and spectrophotometric measurements were performed. The antioxidant activity was expressed as mmol Trolox·dm^−3.

Series [4] is described as follows: Thermogravimetric (TG) analysis, thermal stability. Type of series: physicochemical. The settings on record: air atmosphere, 10 °C·min^−1. As for the experimental part: Samples of 2–5 mg, loaded in aluminium crucibles, were heated from 30 °C to 600 °C at the heating rate of 10 °C·min^−1, in the air atmosphere (25 mL·min^−1) with nitrogen flow (10 mL·min^−1) as the purge gas.

A short description of series [5]: DPPH antioxidant activity of solution obtained after skin extraction. Further details: species or system pig. Particulars: after 24 h penetration. As for the experimental part:
as §2
(§3) The accumulation of the FA and its derivatives in the skin after 24 h permeation process through the skin were determined using a modification of the methods described by Janus et al. and Taokaew et al.. After 24 h of permeation experiment, the skin samples were removed from the Franz diffusion cell, washed three times with 0.5% sodium lauryl sulfate solution and dried at room temperature. Next, after cutting out the diffusion area of each skin sample, the samples were immersed in 2 mL of absolute ethanol and continuously stirred at 300 rpm at room temperature for 24 h. The samples were then centrifuged, and clear solutions were collected and analyzed by HPLC method for the determination of FA and its derivatives. The accumulation of the active substance in the skin was calculated by dividing the amount of the drug remaining in the skin by a mass of skin sample and was expressed in mass active substance per mass of the skin (µg g^−1). For solution obtained after skin extraction, the antioxidant activity and total polyphenol content were also determined (as described in Section 2.5.1 and Section 2.5.2).
For orientation: DPPH is a stable violet radical that fades when it is reduced.

Series [6] can be described thus: DPPH antioxidant activity of acceptor fluid after 24 h permeation. Further details: species or system pig. Particulars: after 24 h penetration. The protocol:
as §2, §1

Series [7] can be described thus: n-octanol/water partition coefficient by shake flask method. Type of series: physicochemical. As for the experimental part:
The n-octanol/water partition coefficient (log PO/W) was determined for ferulic acid and its derivatives by shake flask method. n-Octanol saturated with water and water saturated with n-octanol were prepared at 25 °C, 24 h prior to their use in the experiments. Then, a sample of 10 mg of compound was weighed with the accuracy of 0.01 mg in a 16 cm^3 screwed vial and dissolved in 5 cm^3 of n-octanol. Next, 5 cm^3 of water was added to the vial. The resulting two-phase mixture was kept in water bath shaker at 25 °C for 2 h and was strongly shaken to reach the partition equilibrium of the compound between the phases. Then the mixture was left unshaken for 30 min and 1.0 cm^3 of water phase was carefully taken out to centrifuge tube. The sample was next centrifuged for 10 min at 7500 rpm at 25 °C to ensure the most precise phase separation. The concentration of compound in water phase was then determined using HPLC method. The partition coefficient, log PO/W was calculated according to the formula: logPO/W=logC0V0−CWVW/CWVW where: C0—initial concentration of the compound in n-octanol, calculated based on the weighed mass of compound, mg·cm^−^3; V0—volume of n-octanol, cm^3; CW—concentration of the compound in water after partition equilibrium, mg·cm^−^3; VW—volume of water, cm^3.

Series [8] can be described thus: Accumulation in the skin after 24 h permeation. Type of series: in vitro ADME, pig. The settings on record: 24 h penetration, ethanol solution. As for the experimental part:
as §3

Where [9] appears, read: molar ratio antioxidant:DPPH 0.1, 10 min.
[10] abbreviates: molar ratio antioxidant:DPPH 1.0, 10 min.
The mark [11] stands for this setting: molar ratio antioxidant:DPPH 2.0, 10 min.

Where “and” joins values, the source holds several entries; their conditions need not be identical. Equal values may be shown once.

Take `CCCOC(=O)[C@@H]1CCCN1.COc1cc(/C=C/C(=O)O)ccc1O` [PPr[FA], L-proline propyl ester ferulate]: the “Cumulative Permeation Mass” value is 128.80 ± 19.86 µg FA·cm^−2 and 128.80 ± 19.86 a µg FA·cm^−2 in series [1] (from emulsion); 396.86 ± 42.13 µg FA·cm^−2 and 396.86 ± 42.13 b µg FA·cm^−2 in series [1] (from hydrogel); 427.00 ± 4.674 µg FA·cm^−2 and 427.00 ± 4.67 b µg FA·cm^−2 in series [1] (from solution in 70% (v/v) ethanol). Also, the L929 viability in series [2] worked out at 78.56 ± 2.73%. In addition, the “Antioxidant activity %RSA” value in series [3] (setting [9]) is 19.3 ± 0.001 %RSA and 19.3 ± 0.001 a %RSA; in series [3] (setting [10]), 79.6 ± 0.001 b %RSA; in series [3] (setting [11]), 87.7 ± 0.001 %RSA and 87.7 ± 0.001 b %RSA. In addition, the “Antioxidant activity, Trolox equivalents” value in series [3] (setting [9]) was 0.115 ± 0.001 mmol Trolox dm^−3 and 0.115 ± 0.001 a mmol Trolox dm^−3; in series [3] (setting [10]), 0.697 ± 0.001 b mmol Trolox dm^−3; in series [3] (setting [11]) it was 0.775 ± 0.001 mmol Trolox dm^−3 and 0.775 ± 0.001 b mmol Trolox dm^−3. Moreover, the “Td onset, the onset of decomposition” value in series [4] (TG) was 122.8 °C. For the same compound, the “Td max, temperature of the fastest mass loss of the sample” value in series [4] (TG/DTG) amounted to 148.7 °C. Besides, the “DPPH antioxidant activity of the solution obtained after skin extraction” value in series [5] (emulsion) was found to be 0.198 ± 0.006 a mmol Trolox dm^−3; in series [5] (ethanol solution) it was 0.259 ± 0.007 a mmol Trolox dm^−3; in series [5] (hydrogel) it was 0.351 ± 0.036 ab mmol Trolox dm^−3. The “DPPH antioxidant activity of the acceptor fluid” value in series [6] (emulsion) is 0.061 ± 0.007 mmol Trolox dm^−3 and 0.061 ± 0.007 a mmol Trolox dm^−3; in series [6] (ethanol solution), 0.094 ± 0.002 a mmol Trolox dm^−3; in series [6] (hydrogel) it was 0.075 ± 0.012 mmol Trolox dm^−3 and 0.075 ± 0.012 a mmol Trolox dm^−3. Besides, in series [7] (from log PO/W), the “Share of compound partitioned to n-octanol” value amounted to 74%. Further, the “log PO/W” value in series [7] (n-octanol/water, shake flask, 25 °C) was 0.447 ± 0.022. Further, in series [8], the “Accumulation in the skin compared to pure FA” value is “accumulated in a significantly smaller amount compared to pure FA”.

The values above are taken from paper PMC9861623, “New Ferulic Acid and Amino Acid Derivatives with Increased Cosmeceutical and Pharmaceutical Potential” (Pharmaceutics, 2022).
